Key:
MCF-7 cells = test: Western blot / real time PCR of apoptotic markers and signalling proteins; format: cell-based, human; settings: MCF-7, 5 and 10 μM KR12C, 24 h
Protocol: To observe the effect of KR12C in c-MYC protein expression, and to decipher the peptide-driven signaling pathway to trigger apoptosis within cancer cells, we have performed an array of Western Blot experiments. MCF-7 cells are seeded at a density of 7 × 10^5 cells per well into 60 mm dishes and allowed to attach overnight. Next day cells are serum starved for 18 h. At the end of 18 h fresh medium supplemented with 2% FBS +1% antibiotic and anti-mycotic is added. Then cells are treated with 5 μM and 10 μM KR12C. Recombinant VEGF is added at a concentration of 200 ng/ml of medium either alone or in combination with 10 μM KR12C. Cells are harvested after 24 hrs of treatment.
Whole cell lysate is prepared using the Cell Lysis Buffer (Cell Signalling Technologies) according to the manufacturer's protocol supplemented with Phenylmethylsulfonyl fluoride (PMSF) (Merck) and Protease Inhibitory Cocktail (PIC) (Merck). 40 μg of protein is separated using sodium dodecyl sulfate polyacrylamide gel electrophoresis (SDS-PAGE). (4% stacking gel and 12–15% resolving gel). Samples are transferred to polyvinylidene fluoride (PVDF) membranes (Immobilon-P, EMD Millipore). Membranes were blocked using 5% milk in Tris-buffered saline (TBS) with Tween 20 (Amresco) for 45 min at room temperature. Membranes are then incubated overnight at 4°C with the following antibodies: anti-c-Myc (Rabbit polyclonal, 1:500 dil. Cell Signalling Technology Inc.), Mouse anti-Bcl2 (Mouse monoclonal, 1:250 dil. Santacruz Biotechnology Inc.), anti E2F1, anti VEGF-A, anti-P53, anti-APAF1, anti-Caspase 8, anti-PARP (Abcam), anti-β-actin (Mouse monoclonal, 1:10 000 dil. Santacruz Biotechnology Inc.). Next membranes are incubated with peroxidase conjugated anti-rabbit IgG raised in Goat (Sigma, 1:8000 dil.) and peroxidase conjugated anti-mouse IgG raised in Rabbit (Sigma, 1:10 000 dil.) for 2 h at room temperature. Target proteins are visualised on membranes using Clarity TM Western ECL substrate (Bio-rad) and images are captured using ChemiDoc MP system with Image Lab™ software for PC version 6.0 (Bio-rad).

VEGF-A (Pu22) quadruplex = test: ITC of peptides with VEGF-A quadruplex; format: binding, human; settings: potassium phosphate buffer pH 7.0
Protocol: (§1) Thermodynamic attributes of the interaction profiles between peptides and putative quadruplex sequences are analysed by ITC using iTC200 Microcalorimeter at 25°C. Synthetic peptides (FK13, KR12A, KR12B, KR12C, KR12D and KR12E) are diluted to 20 μM in 10 mM Potassium phosphate buffer (10 mM K2HPO4 + 10 mM KH2PO4) containing 0.1 M KCl (pH 7.0). Syringe is filled with 500 μM quadruplex sequences present in the upstream promoter regions of c-MYC (Pu27, Pu19, and Myc22), BCL-2 (Pu30), VEGF-A (Pu22), KRAS (Pu32) oncogenes, and telomere (Tel26) dissolved into the same buffer. We also carried out the experiment for KR12C and Pu27 using MCF-7 nuclear extract as the solvent to mimic the cellular microenvironment and impart macromolecular crowding during binding events. Same concentration of oligonucleotides is injected into the identical buffer or in nuclear extract without peptides to normalize the heat of dilution of peptide-quadruplex association to that of the control before curve-fitting. […] The heat of reaction per injection (μcal/s) is determined by integration of the peak areas using in-built Origin 7.0 software that provides the best-fit values of enthalpy (ΔH) and entropy (ΔS) of binding, the binding stoichiometry (n), and dissociation constant (Kd) (Supplementary Tables S5(a), S5(b) and S5(c)). […]

[1] = tested on: c-MYC quadruplex isomer Pu19; test: CD melting of free and peptide-bound Pu19; format: binding, human; settings: 10 μM quadruplex, two-state model
Protocol: To understand the role of peptides (FK13, KR12A, KR12B, KR12C, KR12D and KR12E) in stabilizing native and truncated isomers of c-MYC G-quadruplex, we have performed temperature-driven CD melting experiments for free and peptide-bound complexes in JASCO-J815 CD spectrometer. We have gradually titrated the peptides into 10 μM of putative quadruplexes and acquired the spectra after 5 min of peptide addition to allow complex formation and equilibration. Samples are heated from 20 to 95°C having the temperature gradient and the delay time of 2.5°C/min and 150 s respectively. Since the quadruplexes unfold at higher temperatures and revert back to their initial conformations upon renaturation, we have assumed a ‘two-state transition’ model (folded and unfolded) to analyze the melting curves and estimated the melting temperatures (Tm) by fitting the data points into sigmoidal curves (Supplementary information Section 1).

BCL-2 (Pu30) quadruplex = test: ITC of peptides with BCL-2 quadruplex; format: binding, human; settings: potassium phosphate buffer pH 7.0
Protocol: as §1

- binding affinity with VEGF-A quadruplex (VEGF-A (Pu22) quadruplex): very poor or no binding affinity
- rise in the Tm of Pu19 upon peptide binding [1]: 10.87 °C
- binding affinity with BCL-2 quadruplex (BCL-2 (Pu30) quadruplex): very poor or no binding affinity
Substance: N – KRIVKLIKKWLR – C [KR12C]
- expression of p53, cleaved PARP, caspase 8 and APAF-1 (MCF-7 cells; western blot): significant upregulation
- BCL-2 expression at transcription and translation level (MCF-7 cells; western blot and real time PCR): suppressed
- VEGF-A and E2F-1 expression (MCF-7 cells; western blot and real time PCR): significantly suppressed
- fold decreased affinity for BCL-2 quadruplex compared to c-MYC quadruplexes (BCL-2 (Pu30) quadruplex): ~3 fold
